Results reported in ChEMBL document CHEMBL1131885, “Acyclic structural variants of growth hormone secretagogue L-692,429” (1999).
Calls of active or inactive are those of the source. No cut-off for these calls is given here.

Species: Rattus norvegicus
Test: In vitro growth hormone release in rat pituitary cells assay was determined
Format: functional
Conditions: Pituitary gland cell, read-out: ED50 (the source's name)

Question: Which EC50 does the source give for CC(C)(N)CC(=O)N[C@H](Cc1c[nH]c2ccccc12)C(=O)NCc1ccc(-c2ccccc2-c2nn[nH]n2)cc1 here?
Answer: Its EC50 is 400 nM.

Question: How did the EC50 turn out when CC(C)(N)CC(=O)N[C@@H]1CCc2ccccc2N(Cc2ccc(-c3ccccc3-c3nn[nH]n3)cc2)C1=O was run?
Answer: The EC50 was 60 nM.

Question: For CC(C)(N)CC(=O)N[C@H](CCc1ccccc1)C(=O)NCc1ccc(-c2ccccc2-c2nn[nH]n2)cc1, which EC50 is on record?
Answer: Its EC50 is 200 nM.

Question: For CN(Cc1ccc(-c2ccccc2-c2nn[nH]n2)cc1)C(=O)[C@@H](CCc1ccccc1)NC(=O)CC(C)(C)N, which EC50 is on record?
Answer: The EC50 was > 300 nM.

Question: With CCN(Cc1ccc(-c2ccccc2-c2nn[nH]n2)cc1)C(=O)[C@@H](CCc1ccccc1)NC(=O)C(C)(C)N as the compound, how does the EC50 read?
Answer: The EC50 was > 500 nM.

Question: Which EC50 does the source give for CC(C)(N)CC(=O)N[C@H](COCc1ccccc1)C(=O)NCc1ccc(-c2ccccc2-c2nn[nH]n2)cc1 here?
Answer: Its EC50 is > 1000 nM.

Question: CC(C)N(Cc1ccc(-c2ccccc2-c2nn[nH]n2)cc1)C(=O)[C@@H](CCc1ccccc1)NC(=O)C(C)(C)N was tested. Which EC50 did it give?
Answer: The EC50 was > 500 nM.

Question: CN(C(=O)[C@@H](CCc1ccccc1)NC(=O)C(C)(C)N)c1ccc(-c2ccccc2-c2nn[nH]n2)cc1 was tested. Which EC50 did it give?
Answer: Its EC50 is 300 nM.

Question: For CN(Cc1ccc(-c2ccccc2-c2nn[nH]n2)cc1)C(=O)[C@@H](CCc1ccccc1)NC(=O)C(C)(C)N, which EC50 is on record?
Answer: Its EC50 is 30 nM.

Question: How did the EC50 turn out when CC[C@@H](NC(=O)CC(C)(C)N)C(=O)N(Cc1ccc(-c2ccccc2-c2nn[nH]n2)cc1)c1ccccc1 was run?
Answer: Its EC50 is 11000 nM.

Question: Which EC50 does the source give for CC(C)(N)CC(=O)N[C@H](Cc1ccccc1)C(=O)NCc1ccc(-c2ccccc2-c2nn[nH]n2)cc1 here?
Answer: The EC50 was 11000 nM.

Question: For CN(Cc1ccc(-c2ccccc2-c2nn[nH]n2)cc1)C(=O)[C@@H](CCc1ccccc1)NC(=O)CCC(C)(C)N, which EC50 is on record?
Answer: Its EC50 is > 300 nM.

Species: Rattus norvegicus
Test: In vitro growth hormone release in rat pituitary cells assay was determined; IA means inactive
Format: functional, cell-based
Conditions: Pituitary gland cell

Question: For CC(C)(N)CC(=O)NCC(=O)NCc1ccc(-c2ccccc2-c2nn[nH]n2)cc1, which ED50 is on record?
Answer: The ED50 was “inactive”.

Question: C[C@@H](NC(=O)CC(C)(C)N)C(=O)NCc1ccc(-c2ccccc2-c2nn[nH]n2)cc1 was tested. Which ED50 did it give?
Answer: The ED50 was “inactive”.
